Assay: Binding affinity to SafBP receptor in Zea mays (maize) seedlings by [3H]Saf(R-29148) binding assay

Compound	IC50 [nM]
O=C(C(Cl)Cl)N1CCOC12CCCCC2	6000
CC1(C(Cl)Cl)OCCO1	4400
C=CCN(CC=C)C(=O)C(Cl)Cl [DICHLORMID]	10
CC1CN(C(=O)C(Cl)Cl)C(C)(C)O1 (centres undefined)	120
